Test system: fast-spiking interneurons (FSI)
Assay: Hippocampal brain slice current clamp recording, FSI excitability (AP firing)
Format: cell-based, rat
Protocol: Male Sprague Dawley rats (18˜24 days old) from Shanghai Laboratory Animal Center (Shanghai, China) were used for brain slice experiments. They were housed in groups of five in controlled conditions (temperature of 23±3° C., humidity of 40-70%, and 12:12 light-dark cycle with lights on at 5:00 am) and free access to food and water. All procedures were conducted in agreement with the guideline of Institutional Animal Care and Use Committee at ChemPartner. Ethical approval was obtained by the The Danish Animal Experimentation Inspectorate (journal no. 2014 15 0201 00339).
Animals were decapitated by a guillotine and their brains quickly removed and placed in ice-cold modified artificial cerebral spinal fluid (ACSF) containing (in mM): 110 sucrose, 60 NaCl, 3 KCl, 5 glucose, 28 NaHCO3, 1.25 NaH2PO4, 0.5 CaCl2 and 7 MgCl2, aerated with 95% O2/5% CO2. The brains were block-trimmed and glued onto the stage of a vibratome (VT1200S, Leica Microsystems Inc., Bannockburn, Ill., USA). Parasagittal hippocampal slices (300 μm) were cut and incubated in the regular carbogenated ACSF containing (in mM): 119 NaCl, 2.5 KCl, 1.2 Na2HPO4, 25 NaHCO3, 2.5 CaCl2, 1.3 MgCl2, 10 glucose at 35° C. for the first 60 min and then transferred to room temperature prior to recordings.
In the hippocampal CA1 pyramidal cell layer, fast-spiking interneurons (FSI) or pyramidal (PYR) cells were visualized using differential interference contrast-infrared (DIC-IR)-assisted microscopy and whole-cell patch clamp recordings performed using an Axon Multiclamp 700B amplifier (Molecular Devices, Union City, Calif.). FSI were selected based on non-pyramidal shape and multipolar dendrites. Putative FSI were only accepted for experiments if they fulfilled the following electrophysiological criteria: short duration action potentials (APs <1 ms), large after hyperpolarizations, and, in response to sustained current injection, high frequency AP firing (>100 Hz) with limited spike frequency adaptation. Patch pipettes (4-5MΩ) were pulled from thick-walled borosilicate glass tubing (O.D.: 1.5 mm, I.D.: 0.75 mm; Sutter Instrument, Novato, Calif., USA).
Whole cell patch clamp recordings in current clamp mode were used to study neuronal excitability. AP firing was recorded in the presence of 50 μM APV, 10 μM DNQX and 10 μM Gabazine to block all synaptic transmission mediated by NMDA, AMPA and GABAA receptors. Patch pipettes were filled with an intracellular solution containing (in mM): 110 KMeSO4, 10 HEPES, 1 EGTA, 2 MgCl2, 4 Na2-ATP, 0.4 TRIS-GTP, 10 Tris2-Phosphocreatine, pH adjusted to 7.3 with KOH. The osmolarity was adjusted to 290 mOsm with sucrose. The holding potential was maintained continuously at −70 mV by manual DC injection. Series resistance (10-20 MΩ after “break-in”) was 90% compensated and monitored constantly during the entire experiment by “bridge”-balancing of the instantaneous voltage responses to a hyperpolarizing current pulse before each depolarizing stimulus delivery. A series of depolarizing current steps (800 ms-long) were applied every 3 min. Following at least 15 min of stable activity, Kv3 channel modulators were applied to the ACSF at increasing concentrations.

| Structure (SMILES) | FSI excitability (number of APs) (10 μM) | FSI excitability (number of APs) (0.3 and 1 μM) | FSI excitability (low concentrations (0.1 and 1 μM)) |
| --- | --- | --- | --- |
| Cc1ccc(S(=O)(=O)n2ccc(C(=O)NCc3ncco3)c2)cc1 [Compound 86, 1-(4-methylbenzene-1-sulfonyl)-N-[(1,3-oxazol-2-yl)methyl]-1H-pyrrole-3-carboxamide] | slight reduction in excitability | increased excitability | – |
| Cc1cnc(CNC(=O)c2ccn(S(=O)(=O)c3ccc(F)cc3C)c2)cn1 [Compound 90, 1-(4-fluoro-2-methylbenzene-1-sulfonyl)-N-[(5-methylpyrazin-2-yl)methyl]-1H-pyrrole-3-carboxamide] | decreased, reaching a level below baseline | increase in FSI excitability | increases FSI excitability |
